Results taken from patent publication US12544392B2, “Treatment of adenovirus infection or disease associated with adenovirus infection” (SymBio Pharmaceuticals Limited, priority 2023, dated 2026).
“Also recorded” adds a separate entry of the source.

What was measured:
[1] = Human clinical study: BCV-related adverse events (NCI CTCAE version 5.0); assay type: in vivo
Procedure: The study duration is at least 9 weeks, based on a screening period of 1 week, a treatment period of at least 4 weeks, and post-treatment follow-up period of 30 days. In the screening, after informed consent has been obtained from the patients, a screening evaluation is conducted to determine eligibility for the study. On the first day of the first week of the treatment period, patients are assigned a dose based on the applicable cohort (see the section 1.1.3 Cohorts 1-3 above). The duration of treatment is a minimum of 4 weeks and a maximum of 14 weeks, and termination is based on the treatment stopping criteria as described below. For patients who, at the physician's discretion, are assessed as being at high risk for AdV infection/recurrence of disease, the treatment period may be extended for up to 10 weeks, even after the 4-week treatment period is completed, if the AdV is not detected by the two most recent consecutive assays with an interval of 3 days at least. All patients are followed up for 30 days after the last dosing. Adverse events is evaluated according to the National Cancer Institute Common Terminology Criteria for Adverse Events (NCI CTCAE) version 5.0 (grade 1-5). Based on the results of the review of safety data from cohort 1, a decision is made whether to initiate cohort 2. Likewise, the decision to initiate cohort 3 is based on the results of the review of safety data from cohort 2. Enrollment in a new cohort is terminated immediately if grade 3 or higher adverse events are observed in more than 25% of all subjects in the previous cohort.

[2] = tested on: adenovirus (AdV); experiment: Analysis of AdV content in stool of patients by quantitative PCR; assay type: in vivo, human; conditions: for patients in whom AdV content in stool was reduced to ND during the study period: ND = not detected
From the text: In the clinical study of Example 1, the AdV contents in the stools of patients were examined. […] In the figure, D means detected, ND means not detected, and NP means not performed. A quantitative PCR method was used to analyze AdV contents.

[3] = Human clinical study of once-weekly IV BCV (Example 4): adverse events; assay type: in vivo; conditions: cohort 4: 0.4 mg/kg (20 mg/dose if body weight ≥50 kg) IV once weekly
Procedure: The study duration is at least 9 weeks, based on a screening period of 1 week, a treatment period of at least 4 weeks, and post-treatment follow-up period of 30 days. In the screening, after informed consent has been obtained from the patients, a screening evaluation is conducted to determine eligibility for the study. On the first day of the first week of the treatment period, patients are assigned a dose based on the applicable cohort (see the section 4.1.3 Cohorts 4-6 above). The duration of treatment is a minimum of 4 weeks and a maximum of 14 weeks, and termination is based on the treatment stopping criteria as described below. For patients who, at the physician's discretion, are assessed as being at high risk for AdV infection/recurrence of disease, the treatment period may be extended for up to 10 weeks, even after the 4-week treatment period is completed, if the AdV is not detected by the two most recent consecutive assays with an interval of 3 days at least. All patients are followed up for 30 days after the last dosing. Adverse events are evaluated according to the National Cancer Institute Common Terminology Criteria for Adverse Events (NCI CTCAE) version 5.0 (grade 1-5). In cohort 4, patients are enrolled in the initially planned dosing regimen of 0.4 mg/kg or 20 mg IV weekly. […]

[4] = cohort 2: 0.3 mg/kg IV twice weekly
[5] = cohort 3: 0.4 mg/kg IV twice weekly

CCCCCCCCCCCCCCCCOCCCOP(=O)(O)CO[C@H](CO)Cn1ccc(N)nc1=O [BCV, [(2S)-1-(4-amino-2-oxopyrimidin-1-yl)-3-hydroxypropan-2-yl]oxymethyl-(3-hexadecoxypropoxy)phosphinic acid]
BCV-related adverse event, grade (relatedness) ([1]; cohort 1 (0.2 mg/kg IV twice weekly), patient 109-01, 0.2 mg/kg): elevated aspartate transaminase (AST)—grade 1 (probably); also recorded: elevated alanine transaminase (ALT)—grade 1 (probably); also recorded: elevated lactate dehydrogenase (LDH)—grade 1 (possibly) | BCV-related adverse event, grade (relatedness) ([1]; cohort 1 (0.2 mg/kg IV twice weekly), patient 110-01): diarrhea—grade 2 (possibly) | Grade 3 adverse events (number) ([1]; cohort 1: 0.2 mg/kg IV twice weekly): 0 | BCV-related adverse event, grade (relatedness) ([1]; cohort 2 (0.3 mg/kg IV twice weekly), patient 101-09): diarrhea—grade 3 (possibly) | BCV-related adverse event, grade (relatedness) ([1]; cohort 2 (0.3 mg/kg IV twice weekly), patient 101-14): hypertransaminasemia—grade 3 (possibly) | BCV-related adverse event, grade (relatedness) ([1]; cohort 2 (0.3 mg/kg IV twice weekly), patient 109-03): nausea—grade 1 (possibly) | Grade 3 adverse events (number) [1, 4]: 2 | BCV-related adverse event, grade (relatedness) ([1]; cohort 3 (0.4 mg/kg IV twice weekly), patient 102-02, 0.4 mg/kg): increased ALT—grade 3 (possibly); also recorded: increased AST—grade 3 (possibly) | BCV-related adverse event, grade (relatedness) ([1]; cohort 3 (0.4 mg/kg IV twice weekly), patient 109-04, 0.4 mg/kg): feeling of a racing heart—grade 1 (possibly); also recorded: nausea—grade 1 (possibly) | Grade 3 adverse events (number) [1, 5]: 1 | patients in whom AdV content in stool was reduced to ND during the study period [2, 4]: 2 of 9 | cases reduced to ND in which AdV was detected in stool in the following week ([2]; cohort 2: 0.3 mg/kg IV twice weekly, of the two cases): one | patients in whom AdV content in stool was reduced to ND during the study period [2, 5]: 5 of 8 | occurrence of adverse events [3]: particularly suppressed
